Among the data in the Kinase Knowledgebase extract (Sharma et al. 2016) are IC50 values, retold here.

Molecules are shown by their SMILES.

In this assay the target is EGFR (human) (UniProt P00533). To be noted: bt474.
Chain of EGFR (human) (P00533 whole entry, looked up): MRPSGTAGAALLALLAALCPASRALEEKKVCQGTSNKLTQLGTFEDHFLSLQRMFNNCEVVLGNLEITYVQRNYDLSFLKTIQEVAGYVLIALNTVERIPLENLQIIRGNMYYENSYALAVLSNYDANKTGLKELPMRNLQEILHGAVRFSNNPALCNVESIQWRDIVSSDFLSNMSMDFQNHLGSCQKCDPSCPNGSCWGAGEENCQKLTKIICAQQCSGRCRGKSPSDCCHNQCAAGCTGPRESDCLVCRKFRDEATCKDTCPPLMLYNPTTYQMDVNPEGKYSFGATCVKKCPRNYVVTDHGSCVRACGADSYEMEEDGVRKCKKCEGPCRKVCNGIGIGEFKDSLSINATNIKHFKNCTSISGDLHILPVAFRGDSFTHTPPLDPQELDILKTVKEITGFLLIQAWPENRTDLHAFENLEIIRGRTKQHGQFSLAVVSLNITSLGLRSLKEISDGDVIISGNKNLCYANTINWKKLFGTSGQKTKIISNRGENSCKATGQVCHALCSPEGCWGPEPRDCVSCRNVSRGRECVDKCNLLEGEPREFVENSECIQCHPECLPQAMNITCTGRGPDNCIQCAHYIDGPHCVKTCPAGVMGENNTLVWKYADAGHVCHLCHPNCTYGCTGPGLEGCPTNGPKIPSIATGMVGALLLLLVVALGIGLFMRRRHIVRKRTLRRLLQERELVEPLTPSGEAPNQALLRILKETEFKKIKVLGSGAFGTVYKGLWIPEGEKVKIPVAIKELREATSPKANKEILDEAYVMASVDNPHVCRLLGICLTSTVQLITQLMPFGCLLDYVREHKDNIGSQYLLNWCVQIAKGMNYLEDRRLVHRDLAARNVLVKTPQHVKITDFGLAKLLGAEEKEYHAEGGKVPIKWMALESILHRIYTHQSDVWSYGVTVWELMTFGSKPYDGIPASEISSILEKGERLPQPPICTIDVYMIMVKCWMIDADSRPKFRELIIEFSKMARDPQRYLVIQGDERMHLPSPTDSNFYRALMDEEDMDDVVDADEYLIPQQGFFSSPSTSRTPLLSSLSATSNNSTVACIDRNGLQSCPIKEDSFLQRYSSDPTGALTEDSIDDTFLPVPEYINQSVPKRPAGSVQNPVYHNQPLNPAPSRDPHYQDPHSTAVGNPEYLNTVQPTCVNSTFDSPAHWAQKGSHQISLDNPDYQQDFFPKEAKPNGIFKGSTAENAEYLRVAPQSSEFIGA
Turning to `O=C(/C=C/CN1CCC1CO)Nc1cc2c(Nc3ccc(F)c(Cl)c3)ncnc2cc1OC[C@H]1[C@@H]2COC[C@@H]21` (some centres undefined), the IC50 (usually the concentration needed to halve the response being measured) came to 10.8 nM.

On to `O=C(/C=C/CN1CCC1CO)Nc1cc2c(Nc3ccc(F)c(Cl)c3)ncnc2cc1OCC1CC1` (centres undefined), for which the IC50 was 9.5 nM.

In turn, `O=C(/C=C/CN1CCC1CO)Nc1cc2c(Nc3ccc(F)c(Cl)c3)ncnc2cc1O[C@H]1CCOC1` (some centres undefined) registered an IC50 of 3.9 nM.

As to `COC[C@@H]1CCN1C/C=C/C(=O)Nc1cc2c(Nc3ccc(F)c(Cl)c3)ncnc2cc1OCC1CC1`, the IC50 was determined as 21.7 nM.

With `COc1cc2ncnc(Nc3ccc(F)c(Cl)c3)c2cc1NC(=O)/C=C/CN1CCC1CO` (centres undefined), the IC50 was 2.3 nM.

For the compound `O=C(/C=C/CN1CCC1CO)Nc1cc2c(Nc3ccc(F)c(Cl)c3)ncnc2cc1OC[C@@H]1COCCO1` (some centres undefined), the IC50 was 17.5 nM.

Consider `COC[C@@H]1CCN1C/C=C/C(=O)Nc1cc2c(Nc3ccc(F)c(Cl)c3)ncnc2cc1OC`, for which the IC50 turned out to be 21.5 nM.

The compound `COCC1CCN1C/C=C/C(=O)Nc1cc2c(Nc3ccc(F)c(Cl)c3)ncnc2cc1O[C@H]1CCOC1` (some centres undefined) came in with an IC50 of 2.9 nM.

`COC[C@H]1CCN1C/C=C/C(=O)Nc1cc2c(Nc3ccc(F)c(Cl)c3)ncnc2cc1OC` displayed a half-maximal inhibitory concentration (IC50) of 1.6 nM.

The compound `O=C(/C=C/CN1CCC1CO)Nc1cc2c(Nc3ccc(F)c(Cl)c3)ncnc2cc1OC[C@H]1COCCO1` (some centres undefined) displayed an IC50 of 2.7 nM.

Regarding `COC[C@H]1CCN1C/C=C/C(=O)Nc1cc2c(Nc3ccc(F)c(Cl)c3)ncnc2cc1OCC1CC1`, the IC50 amounted to 6.6 nM.

`CCOc1cc2ncnc(Nc3ccc(F)c(Cl)c3)c2cc1NC(=O)/C=C/CN1CC[C@@H]1COC` showed a half-inhibitory concentration (IC50) of 2 nM.

On to `COCCOc1cc2ncnc(Nc3ccc(F)c(Cl)c3)c2cc1NC(=O)/C=C/CN1CC[C@@H]1COC`, for which the IC50 is 1.4 nM.

On to `COCCOc1cc2ncnc(Nc3ccc(F)c(Cl)c3)c2cc1NC(=O)/C=C/CN1CC[C@H]1COC`, for which the half-maximal inhibitory concentration (IC50) worked out at 5.8 nM.
